From PubChem BioAssay (NCI)
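Five concentrations, 48 hours, 96-well plates. TGI denotes the concentration required for complete inhibition of growth.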

Tests used:
Test in all cases: inhibition of tumour cell growth, NCI panel, 48 h
IGROV1 ovarian = tested on: IGROV1 ovarian
HT29 colon = tested on: HT29 colon
SK-MEL-5 melanoma = tested on: SK-MEL-5 melanoma
U251 CNS = tested on: U251 CNS
HCT-116 colon = tested on: HCT-116 colon
RPMI-8226 leukemia = tested on: RPMI-8226 leukemia
KM20L2 colon = tested on: KM20L2 colon
MOLT-4 leukemia = tested on: MOLT-4 leukemia
SK-MEL-2 melanoma = tested on: SK-MEL-2 melanoma
M14 melanoma = tested on: M14 melanoma
KM12 colon = tested on: KM12 colon
ACHN renal = tested on: ACHN renal
DMS 273 small cell lung = tested on: DMS 273 small cell lung
UACC-257 melanoma = tested on: UACC-257 melanoma
K-562 leukemia = tested on: K-562 leukemia
OVCAR-8 ovarian = tested on: OVCAR-8 ovarian
UACC-62 melanoma = tested on: UACC-62 melanoma
DLD-1 colon = tested on: DLD-1 colon
OVCAR-4 ovarian = tested on: OVCAR-4 ovarian
UO-31 renal = tested on: UO-31 renal
NCI-H460 lung = tested on: NCI-H460 lung
NCI-H23 lung = tested on: NCI-H23 lung
SN12C renal = tested on: SN12C renal
M19-MEL melanoma = tested on: M19-MEL melanoma
NCI-H522 lung = tested on: NCI-H522 lung
DMS 114 small cell lung = tested on: DMS 114 small cell lung
RXF 393 renal = tested on: RXF 393 renal
EKVX NSCLC = tested on: EKVX NSCLC
TK-10 renal = tested on: TK-10 renal
CCRF-CEM leukemia = tested on: CCRF-CEM leukemia
MALME-3M melanoma = tested on: MALME-3M melanoma
786-0 renal = tested on: 786-0 renal
CAKI-1 renal = tested on: CAKI-1 renal
SNB-19 CNS = tested on: SNB-19 CNS
OVCAR-3 ovarian = tested on: OVCAR-3 ovarian
SR leukemia = tested on: SR leukemia
SF-295 CNS = tested on: SF-295 CNS
HCT-15 colon = tested on: HCT-15 colon
LXFL 529 NSCLC = tested on: LXFL 529 NSCLC
HOP-62 NSCLC = tested on: HOP-62 NSCLC
SW-620 colon = tested on: SW-620 colon
A549 NSCLC = tested on: A549 NSCLC
LOX IMVI melanoma = tested on: LOX IMVI melanoma
SNB-75 CNS = tested on: SNB-75 CNS
HCC-2998 colon = tested on: HCC-2998 colon
SF-539 CNS = tested on: SF-539 CNS
COLO 205 colon = tested on: COLO 205 colon
SK-OV-3 ovarian = tested on: SK-OV-3 ovarian
HOP-18 NSCLC = tested on: HOP-18 NSCLC
OVCAR-5 ovarian = tested on: OVCAR-5 ovarian
SNB-78 CNS = tested on: SNB-78 CNS
HL-60(TB) leukemia = tested on: HL-60(TB) leukemia
SK-MEL-28 melanoma = tested on: SK-MEL-28 melanoma
SF-268 CNS = tested on: SF-268 CNS
NCI-H226 lung = tested on: NCI-H226 lung
A498 renal = tested on: A498 renal
HOP-92 NSCLC = tested on: HOP-92 NSCLC

Measured: TGI

CNS(=O)(=O)NNS(=O)(=O)c1cccc([N+](=O)[O-])c1
not listed: SK-OV-3 ovarian | HOP-18 NSCLC | OVCAR-5 ovarian | SNB-78 CNS | HL-60(TB) leukemia | SK-MEL-28 melanoma | SF-268 CNS | NCI-H226 lung | A498 renal | HOP-92 NSCLC
> 100 µM: all other assays above

O=C1C=C(c2[nH]c3ccccc3c2C2=CC(=O)c3ccccc3C2=O)C(=O)c2ccccc21
57.1 µM: SR leukemia
43.9 µM: CCRF-CEM leukemia
35.7 µM: MOLT-4 leukemia
57.6 µM: SNB-75 CNS
60.1 µM: K-562 leukemia
71.3 µM: UACC-62 melanoma
88.3 µM: OVCAR-3 ovarian
95.6 µM: IGROV1 ovarian
59 µM: LOX IMVI melanoma
35.4 µM: M19-MEL melanoma
44.4 µM: HL-60(TB) leukemia
36.6 µM: DMS 114 small cell lung
not listed: HCT-116 colon | KM20L2 colon | SK-MEL-2 melanoma | UACC-257 melanoma | SN12C renal | NCI-H522 lung | MALME-3M melanoma | CAKI-1 renal | HCT-15 colon | HOP-62 NSCLC | HCC-2998 colon | HOP-92 NSCLC
> 100 µM: all other assays above

C=CCCCCCCCC(O)C1C[C@H](O)C(CCCCC)O1 (stereo partly specified)
32.2 µM: 786-0 renal
36 µM: SN12C renal
33.7 µM: SK-MEL-28 melanoma
29.7 µM: SNB-75 CNS
29.6 µM: UACC-62 melanoma | NCI-H226 lung
33 µM: SF-295 CNS
41.7 µM: SW-620 colon
33.5 µM: MALME-3M melanoma
43.2 µM: SK-OV-3 ovarian
41.3 µM: KM12 colon
32.1 µM: HOP-18 NSCLC
40 µM: HCT-15 colon
35.6 µM: HT29 colon
43.6 µM: MOLT-4 leukemia
34.6 µM: M14 melanoma | CAKI-1 renal
37.7 µM: RXF 393 renal
32.8 µM: DMS 273 small cell lung
36.8 µM: NCI-H23 lung
37 µM: DMS 114 small cell lung
37.2 µM: NCI-H460 lung
30.7 µM: HOP-92 NSCLC | SF-539 CNS
40.2 µM: OVCAR-8 ovarian
31.9 µM: UO-31 renal
31.3 µM: U251 CNS
32.7 µM: OVCAR-3 ovarian
41.6 µM: CCRF-CEM leukemia
42.2 µM: IGROV1 ovarian
45.1 µM: SNB-78 CNS
36.1 µM: LOX IMVI melanoma | A498 renal
36.7 µM: EKVX NSCLC
43.9 µM: RPMI-8226 leukemia
37.4 µM: HL-60(TB) leukemia
47.6 µM: K-562 leukemia
37.5 µM: A549 NSCLC
34.8 µM: TK-10 renal
31 µM: DLD-1 colon
34.7 µM: SK-MEL-5 melanoma
35.9 µM: M19-MEL melanoma
33.4 µM: HCC-2998 colon
35.1 µM: NCI-H522 lung
36.6 µM: ACHN renal
29 µM: LXFL 529 NSCLC
34.5 µM: HCT-116 colon | COLO 205 colon

CC1=C(C(=O)CC(=O)C(=O)Nc2cccc(C)c2C)Sc2ccccc2N1
not listed: KM20L2 colon | DMS 273 small cell lung | SR leukemia | SNB-75 CNS | COLO 205 colon | A498 renal
> 100 µM: all other assays above
